Experimental data taken from US20240285514A1, “EXTRACTS OF EUTERPE OLERACEA, METHODS OF MAKING, AND USES THEREOF” (Naturesphix Limited, priority 2021, published 2024).
One block for each compound: values may come before it.

Columns and labels:
MMP-1 enzyme = target: T1, MMP-1 enzyme (Homo sapiens, UniProt P03956); experiment: Metalloproteinase-1 (MMP-1) enzyme activity; assay type: biochemical
T1 sequence (P03956 100-469): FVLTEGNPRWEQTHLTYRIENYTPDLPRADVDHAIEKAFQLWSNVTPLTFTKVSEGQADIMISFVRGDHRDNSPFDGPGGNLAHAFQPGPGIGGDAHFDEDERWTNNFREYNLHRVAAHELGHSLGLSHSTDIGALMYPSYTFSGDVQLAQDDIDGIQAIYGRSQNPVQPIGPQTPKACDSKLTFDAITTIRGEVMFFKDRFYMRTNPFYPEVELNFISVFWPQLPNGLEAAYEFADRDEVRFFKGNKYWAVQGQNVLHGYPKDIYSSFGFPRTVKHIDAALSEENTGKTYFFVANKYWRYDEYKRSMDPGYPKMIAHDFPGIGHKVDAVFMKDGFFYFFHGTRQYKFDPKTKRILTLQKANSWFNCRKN
Experimental: The MMP-1 enzyme was evaluated after incubation with the Vehicle (0.04% DMSO), ST-035 (10 μg/mL), Ascorbic acid Reference Substance (10 μg/mL), Ferulic acid Reference Substance (4 μg/mL) or positive control of the test, GM6001, a MMP-1 enzyme activity inhibitor. The bars represent the mean±standard error of the mean of 1 assay performed in triplicate. The percentage of inhibition was calculated in relation to the Vehicle group. For the statistical analysis a one-way analysis of variance (ANOVA) was used, followed by the Newman-Keuls test (*p<0.05 in comparison to Vehicle group).

[1] = system: reconstructed human tissue model; experiment: Skin irritation assay, reconstructed human epidermis (OECD TG439); assay type: cell-based; conditions: 42 minutes treatment; three tissues
Experimental: The possible irritant action of ST-035 on a reconstructed human tissue model, as described in the OECD Guidelines for the Testing of Chemicals, Section 4, TG439 In Vitro Skin Irritation: Reconstructed Human Epidermis Test Method was evaluated. After receiving the tissues, they were readapted in growth medium overnight until the Treatment moment. After the readaptation, Negative Control, positive control (Reference Substance) or Test Substance were added in a 16 μL volume on the epidermis and maintained for 42 minutes (±1 minute). Following, each tissue went through a 25-phosphate buffer washing process to remove the Treatments. Subsequently, the epidermis was maintained for 42 hours (±1 hour) in growth medium in a CO2 incubator (5±0.1%) at 37±0.1° C. After this period, the tissues were incubated for 3 hours (±15 minutes) with a 1 mg/mL MTT solution and then 2 hours with isopropanol for the formazan complex extraction. Then, 200 μL of each well (in duplicate) were transferred to a 96-well plate for absorbance reading at 570 nm.
Skin irritation assay in a reconstructed human skin model is an alternative method that follows the OECD TG439 standards and is validated by international centers, with international regulatory acceptance. […]

human keratinocytes [2] = experiment: Antioxidant potential against UVB radiation in keratinocytes (24 h pre-treatment, DCFH-DA probe); assay type: cell-based; conditions: 10 μg/mL; incubation 24 hours before UVB 90 mJ/cm^2; vs vehicle+UVB
Experimental: (§1) The 2′,7′ dichlorofluorescein diacetate (nonfluorescent) is de-esterified intracellularly and becomes a 2′,7′ highly fluorescent dichlorofluorescein after oxidation. Fluorescence detection was performed at 485 nm excitation wavelength and 535 nm emission wavelength in SpectraMax i3x (Molecular Devices) equipment. […] The concentrations of the Test Substance (10 μg/mL), Ascorbic acid Reference Substance (10 μg/mL) and Ferulic acid Reference Substance (4 μg/mL) were prepared according to the description above (Test Substance, Reference Substances and Vehicle Preparation).

human keratinocytes [3] = experiment: Intrinsic antioxidant activity (basal EROs production) with DCFH-DA probe in keratinocytes; assay type: cell-based; conditions: no UVB, vs vehicle
Experimental: as §1, with “Preparation). The intrinsic antioxidant activity of Test Substance in human keratinocytes was evaluated as follows. […] Subsequently, the production of EROs was evaluated through the microplate reader (485/535 nm). Two different assays were performed in triplicate. For the statistical analysis, one-way analysis of variance (ANOVA) was used, followed by the Newman-Keuls test (*p<0.05 in comparison to Vehicle group).” for “Preparation).”

human keratinocytes [4] = experiment: Scavenger activity against UVB radiation, section headed 'in Fibroblasts' (FIG. 14); assay type: cell-based; conditions: 10 μg/mL added immediately prior to UVB 90 mJ/cm2; vs vehicle+UVB
Experimental: as §1

human keratinocytes [5] = experiment: Scavenger potential against UVB radiation in keratinocytes (DCFH-DA probe); assay type: cell-based; conditions: 10 μg/mL added immediately prior to UVB 90 mJ/cm^2; vs vehicle+UVB
Experimental: as §1

human fibroblasts = experiment: Antioxidant potential against UVB in human fibroblasts (DCFH-DA probe); assay type: cell-based; conditions: pre-incubation before UVB 90 mJ/cm^2, vs vehicle+UVB
Experimental: as §1, with “Preparation). The human fibroblasts were incubated with a DCFH-DA probe (50 μM) for 30 minutes. After this period, the fibroblasts were incubated. For statistical analysis, one-way variance analysis (ANOVA) was used, followed by Newman-Keuls test (#p<0.05 compared to Vehicle group and *p<0.05 compared to Vehicle+UVB 90 mJ/cm^2).” for “Preparation).”

tyrosinase = experiment: Tyrosinase enzyme activity; assay type: biochemical
Experimental: After that, 170 μL of L-tyrosine substrate 1 mM, solubilized in a potassium phosphate buffer 50 mM (pH 6.5) were added. After the incubation period of 30 to 40 minutes, the plate was read at 490 nm.
For the statistical analysis one-way analysis of variance (ANOVA) was used, followed by the Newman-Keuls test (*p<0.05 in comparison to the Vehicle group). The percentage of inhibition was calculated in relation to the Vehicle group.

inhibition at 10 µg/mL (MMP-1 enzyme; 10 μg/mL, vs vehicle): 9.2 ± 1.5%
SMILES: O=C1O[C@H]([C@@H](O)CO)C(O)=C1O [ascorbic acid]
decrease of production of EROs after UVB (antioxidant capacity) (human keratinocytes [2]): 44.3±11.4% | reduction of basal production of EROs (human keratinocytes [3]; 10 μg/mL, 4 hours): did not change | reduction of basal production of EROs (human keratinocytes [3]; 10 μg/mL, 24 hours): did not change | reduction of UVB induced production of EROs (scavenger potential, FIG. 14) (human keratinocytes [4]): 46.2±2.0% | reduction of UVB induced production of EROs (scavenger potential) (human keratinocytes [5]): 46.2±2.0% | reduction of production of reactive oxygen species (antioxidant potential) (human fibroblasts; 10 μg/mL): 30.5±6.2%

change of MMP-1 activity in vitro (MMP-1 enzyme; 4 μg/mL, vs vehicle): did not change
SMILES: COc1cc(/C=C/C(=O)O)ccc1O [ferulic acid]
reduction of basal production of EROs (human keratinocytes [3]; 4 μg/mL, 4 hours): 26.8±2.4% | reduction of basal production of EROs (human keratinocytes [3]; 4 μg/mL, 24 hours): 45.8±6.6% | reduction of production of reactive oxygen species (antioxidant potential) (human fibroblasts; 4 μg/mL): 47.4±0.5%

reduction of tyrosinase enzyme activity (tyrosinase; 300 μg/mL): 43% | reduction of tyrosinase enzyme activity (tyrosinase; 1,000 μg/mL): 84%
SMILES: O=c1cc(CO)occ1O [kojic acid]

Second part, the compound before the results:

SMILES: CNC(=O)[C@H](Cc1c[nH]c2ccccc12)NC(=O)[C@@H](CC(=O)NO)CC(C)C [GM6001]
reduction of MMP-1 activity (MMP-1 enzyme; 1 μM, assay validation): 81.3±1.5%

SMILES: CCCCCCCCCCCCOS(=O)(=O)[O-].[Na+] [SDS, sodium dodecylsulfate]
tissue viability mean (absorbance at 570 nm) [1]: 0.018±0.001
